“And” between values parts separate entries of the source, which are not always exact repeats. Identical values can stand only once. One block for each compound: values may come before it.
Biological target: T1, rat GPR14 (U-II receptor) (Rattus norvegicus, UniProt P49684)
T1 construct: expressed in transfected cells
T1 sequence (P49684 1-386): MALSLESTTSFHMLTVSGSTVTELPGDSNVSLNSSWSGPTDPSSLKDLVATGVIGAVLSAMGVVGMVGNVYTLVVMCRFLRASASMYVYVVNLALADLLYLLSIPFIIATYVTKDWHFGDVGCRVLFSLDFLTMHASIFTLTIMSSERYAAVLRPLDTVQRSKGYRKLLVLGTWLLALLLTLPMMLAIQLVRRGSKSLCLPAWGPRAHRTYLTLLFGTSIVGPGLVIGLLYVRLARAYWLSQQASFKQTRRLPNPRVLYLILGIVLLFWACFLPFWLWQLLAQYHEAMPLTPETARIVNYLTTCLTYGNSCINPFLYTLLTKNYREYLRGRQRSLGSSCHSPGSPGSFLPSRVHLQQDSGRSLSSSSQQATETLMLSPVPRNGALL
Assay: Rat UII Calcium Mobilization FLIPR Assay
Type: cell-based
Details: for inhibition at 10 µM / inhibition at 50 µM: CHO, 5 min, agonist-induced Ca2+ mobilization (FLIPR), CHO cells with rat UII receptor; for inhibition at 10 µM: 10 μM compound, read-out: % I @ 10; for inhibition at 50 µM: 50 μM compound, read-out: % I @ 50; for IC50: Inhibition of Acetyl-cyclic[Cys-Phe-Trp-Lys-(2-Nal)-Cys]-NH2 induced Ca2+ mobilization (FLIPR) in CHO cells transfected with rat UII receptor, read-out: IC50
Description: To derive these cells, the complete coding sequence of rat U-II (Genbank Accession No. U32673) was amplified by nested PCR from rat heart marathon-Ready cDNA. […] The PCR products were cloned into pcDNA3 (Invitrogen) digested with EcoR I and Xba I. Clones containing rat U-II receptor were verified by complete sequencing of the U-II receptor insert to ensure a lack of PCR-introduced errors. The constructed vector was transfected into CHO cells by using lipofectamine (GIBCO BRL). CHO cells with high expression of rat U-II receptor were selected and established as stable cell lines by using G418. CHO cells were seeded at 25,000 cells per well into 96-well, black-wall, clear-bottom microtiter plates 24 h before assay. Cells in culture media (DMEM/F12 containing 15 mM HEPES, L-glutamine, pyridoxine hydrochloride; 10% fetal bovine serum; 1 mg/mL G418 sulfate; antibiotic-antimycotic; pH 7.4) were loaded with proprietary dye, from the FLIPR Calcium Assay Kit (Molecular Devices), prepared in assay buffer (Hanks Balanced Salts Solution, 20 mM HEPES, 0.1% BSA, 2.5 mM probenecid, pH 7.4), and incubated for 1 h at 37° C. Calcium mobilization determinations were performed at room temperature (23° C.).

SMILES: COc1ccc(CN2C(=O)c3cccc(N4CCN(Cc5c(F)cccc5F)CC4)c3C2=O)cc1OC [Cpd 16, 4-[4-(2,6-difluoro-benzyl)-piperazin-1-yl]-2-(3,4-dimethoxy-benzyl)-isoindole-1,3-dione]
inhibition at 10 µM: 91% | inhibition at 50 µM: 97% | IC50: 0.86 µM and 1.1 µM

SMILES: COc1ccc(CCN2C(=O)c3cccc(N4CC5CCC(C4)N5Cc4ccccc4)c3C2=O)cc1OC [Cpd 25, 4-(8-benzyl-3,8-diaza-bicyclo[3.2.1]oct-3-yl)-2-[2-(3,4-dimethoxy-phenyl)-ethyl]-isoindole-1,3-dione]
inhibition at 10 µM: 90% | inhibition at 50 µM: 100% | IC50: 2.8 µM

SMILES: COc1cc(CN2C(=O)c3cccc(N4CC5CCC(C4)N5Cc4ccccc4)c3C2=O)cc(OC)c1OC [Cpd 26, 4-(8-benzyl-3,8-diaza-bicyclo[3.2.1]oct-3-yl)-2-(3,4,5-trimethoxy-benzyl)-isoindole-1,3-dione]
inhibition at 10 µM: 81% | inhibition at 50 µM: 94% | IC50: 3.4 µM

SMILES: COc1ccc(CN2C(=O)c3cccc(N4CC5CCC(C4)N5C(C)c4ccccc4)c3C2=O)cc1OC (stereo not drawn) [Cpd 32, 2-(3,4-dimethoxy-benzyl)-4-[8-(1-phenyl-ethyl)-3,8-diaza-bicyclo[3.2.1]oct-3-yl]-isoindole-1,3-dione]
inhibition at 10 µM: 73% | inhibition at 50 µM: 93% | IC50: 4.9 µM

SMILES: COc1ccc(CN2C(=O)c3cccc(N4CCN(Cc5cccc(C)c5)CC4)c3C2=O)cc1OC [Cpd 36, 2-(3,4-dimethoxy-benzyl)-4-[4-(3-methyl-benzyl)-piperazin-1-yl]-isoindole-1,3-dione]
inhibition at 10 µM: 63% | inhibition at 50 µM: 82% | IC50: 6.5 µM

SMILES: COc1ccc(CN2C(=O)c3cccc(N[C@@H]4CCCC[C@H]4NCc4ccccc4)c3C2=O)cc1OC [Cpd 37, 4-(1R,2R)-(2-benzylamino-cyclohexylamino)-2-(3,4-dimethoxy-benzyl)-isoindole-1,3-dione]
inhibition at 10 µM: 62% | inhibition at 50 µM: 71% | IC50: 6.9 µM

SMILES: COc1ccc(CN2C(=O)c3cccc(N4CCN(Cc5ccccc5C#N)CC4)c3C2=O)cc1OC [Cpd 38, 2-{4-[2-(3,4-dimethoxy-benzyl)-1,3-dioxo-2,3-dihydro-1H-isoindol-4-yl]-piperazin-1-ylmethyl}-benzonitrile]
inhibition at 10 µM: 56% | inhibition at 50 µM: 94% | IC50: 7.6 µM

SMILES: O=C1c2cccc(N3CC4CCC(C3)N4Cc3ccccc3)c2C(=O)N1Cc1ccncc1 [Cpd 39, 4-(8-benzyl-3,8-diaza-bicyclo[3.2.1]oct-3-yl)-2-pyridin-4-ylmethyl-isoindole-1,3-dione]
inhibition at 10 µM: 47% | inhibition at 50 µM: 101% | IC50: 8.9 µM

SMILES: COc1ccc(CN2C(=O)c3cccc(N4CCN(Cc5ccc(C)cc5)CC4)c3C2=O)cc1OC [Cpd 40, 2-(3,4-dimethoxy-benzyl)-4-[4-(4-methyl-benzyl)-piperazin-1-yl]-isoindole-1,3-dione]
inhibition at 10 µM: 47% | inhibition at 50 µM: 87% | IC50: 9 µM

SMILES: CCCOc1ccc(CN2C(=O)c3cccc(N4CCN([C@H](C)c5ccccc5)CC4)c3C2=O)cc1OC [Cpd 41, 2-(3-methoxy-4-propoxy-benzyl)-4-[4-(1R)-(1-phenyl-ethyl)-piperazin-1-yl]-isoindole-1,3-dione]
inhibition at 10 µM: 57% | inhibition at 50 µM: 69% | IC50: 9.8 µM

Continued by falling IC50, values first:

inhibition at 10 µM: 55% | inhibition at 50 µM: 65% | IC50: 6.3 µM
SMILES: C#CC(c1ccccc1)N1CCN(c2cccc3c2C(=O)N(Cc2ccc(OC)c(OC)c2)C3=O)CC1 (stereo not drawn) [Cpd 35, 2-(3,4-dimethoxy-benzyl)-4-[4-(1-phenyl-prop-2-ynyl)-piperazin-1-yl]-isoindole-1,3-dione]

inhibition at 10 µM: 64% | inhibition at 50 µM: 94% | IC50: 5.9 µM
SMILES: COc1cc(CN2C(=O)c3cccc(N4CCN(Cc5ccccc5)CC4)c3C2=O)cc(OC)c1OC [Cpd 34, 4-(4-benzyl-piperazin-1-yl)-2-(3,4,5-trimethoxy-benzyl)-isoindole-1,3-dione]

inhibition at 10 µM: 60% | inhibition at 50 µM: 97% | IC50: 5 µM
SMILES: COc1ccc(CN2C(=O)c3cccc(N4CCN(Cc5ccccc5C)CC4)c3C2=O)cc1OC [Cpd 33, 2-(3,4-dimethoxy-benzyl)-4-[4-(2-methyl-benzyl)-piperazin-1-yl]-isoindole-1,3-dione]

inhibition at 10 µM: 65% | inhibition at 50 µM: 89% | IC50: 4.5 µM
SMILES: COc1ccc(CN2C(=O)c3cccc(N4CCN(Cc5ccccc5Cl)CC4)c3C2=O)cc1OC [Cpd 31, 4-[4-(2-chloro-benzyl)-piperazin-1-yl]-2-(3,4-dimethoxy-benzyl)-isoindole-1,3-dione]

inhibition at 10 µM: 77% | inhibition at 50 µM: 95% | IC50: 4.4 µM
SMILES: COc1ccc(CN2C(=O)c3cccc(N4CCN(Cc5cc(F)ccc5F)CC4)c3C2=O)cc1OC [Cpd 29, 4-[4-(2,5-difluoro-benzyl)-piperazin-1-yl]-2-(3,4-dimethoxy-benzyl)-isoindole-1,3-dione]

inhibition at 10 µM: 80% | inhibition at 50 µM: 99% | IC50: 4.4 µM
SMILES: COc1ccc([C@H](CC(=O)O)N2C(=O)c3cccc(N4CCN([C@H](C)c5ccccc5)CC4)c3C2=O)cc1OC [Cpd 30, (S)-3-(3,4-dimethoxy-phenyl)-3-{1,3-dioxo-4-[4-(1R)-(1-phenyl-ethyl)-piperazin-1-yl]-1,3-dihydro-isoindol-2-yl}-propionic acid]

inhibition at 10 µM: 78% | inhibition at 50 µM: 100% | IC50: 3.8 µM
SMILES: COc1ccc(CN2C(=O)c3cccc(N4CCN(C(c5ccccc5)C5CC5)CC4)c3C2=O)cc1OC (stereo not drawn) [Cpd 27, 4-[4-(cyclopropyl-phenyl-methyl)-piperazin-1-yl]-2-(3,4-dimethoxy-benzyl)-isoindole-1,3-dione]

inhibition at 10 µM: 96% | inhibition at 50 µM: 100% | IC50: 2.1 µM
SMILES: COc1ccc(CN2C(=O)c3cccc(N4CCN(Cc5ccc(F)cc5F)CC4)c3C2=O)cc1OC [Cpd 24, 4-[4-(2,4-difluoro-benzyl)-piperazin-1-yl]-2-(3,4-dimethoxy-benzyl)-isoindole-1,3-dione]

inhibition at 10 µM: 100% | inhibition at 50 µM: 100% | IC50: 1.9 µM
SMILES: COc1ccc(CN2C(=O)c3cccc(N4CCN(CCc5ccccc5)CC4)c3C2=O)cc1OC [Cpd 22, 2-(3,4-dimethoxy-benzyl)-4-(4-phenethyl-piperazin-1-yl)-isoindole-1,3-dione]

inhibition at 10 µM: 62% | inhibition at 50 µM: 101% | IC50: 1.9 µM
SMILES: Cc1nn(C)c(C)c1CN1C(=O)c2cccc(N3CCN(Cc4ccccc4)CC3)c2C1=O [Cpd 23, 4-(4-benzyl-piperazin-1-yl)-2-(1,3,5-trimethyl-1H-pyrazol-4-ylmethyl)-isoindole-1,3-dione]

inhibition at 10 µM: 90% | inhibition at 50 µM: 98% | IC50: 1.7 µM
SMILES: CCOc1cc(CN2C(=O)c3cccc(N4CCN([C@H](C)c5ccccc5)CC4)c3C2=O)ccc1OC [Cpd 21, 2-(3-ethoxy-4-methoxy-benzyl)-4-[4-(1R)-(1-phenyl-ethyl)-piperazin-1-yl]-isoindole-1,3-dione]

inhibition at 10 µM: 78% | inhibition at 50 µM: 15% | IC50: 1.5 µM
SMILES: COc1ccc(CN2C(=O)c3cccc(N4CCN(C5CCc6ccccc65)CC4)c3C2=O)cc1OC (stereo not drawn) [Cpd 20, 2-(3,4-dimethoxy-benzyl)-4-(4-indan-1-yl-piperazin-1-yl)-isoindole-1,3-dione]

inhibition at 10 µM: 98% | inhibition at 50 µM: 101% | IC50: 0.49 µM
SMILES: COc1ccc(CN2C(=O)c3cccc(N4CCN([C@@H](C)c5ccccc5)CC4)c3C2=O)cc1OC [Cpd 14, 2-(3,4-dimethoxy-benzyl)-4-[4-(1S)-(1-phenyl-ethyl)-piperazin-1-yl]-isoindole-1,3-dione]

inhibition at 10 µM: 100% | inhibition at 50 µM: 101% | IC50: 0.34 µM
SMILES: COc1cc2c(cc1OC)C(N1C(=O)c3cccc(N4CCN(Cc5ccccc5)CC4)c3C1=O)CC2 (stereo not drawn) [Cpd 11, 4-(4-benzyl-piperazin-1-yl)-2-(5,6-dimethoxy-indan-1-yl)-isoindole-1,3-dione]

inhibition at 10 µM: 100% | inhibition at 50 µM: 106% | IC50: 0.21 µM
SMILES: COc1ccc(CN2C(=O)c3c(Cl)ccc(N4CCN([C@H](C)c5ccccc5)CC4)c3C2=O)cc1OC [Cpd 10, 4-chloro-2-(3,4-dimethoxy-benzyl)-7-[4-(1R)-(1-phenyl-ethyl)-piperazin-1-yl]-isoindole-1,3-dione]

From patent publication US8193191B2, “Urotensin II receptor antagonists” (Janssen Pharmaceutica N.V., priority 2006, dated 2012)
